Experiment [1] deals with LoVo. Briefly: Sensitivity of colon cancer cell lines to AKT1/2 inhibitor (cell killing). Type of experiment: cell-based, human. Particulars: in vitro, grouping is relative. The text has this:
(§1) FIG. 2. Cell lines used as a starting point for signature gene discovery. Nineteen colon cancer cell lines were phenotyped for sensitivity to the AKT1/2 inhibitor L-001154547.
(§2) In order to identify a gene expression signature of growth factor signaling pathway deregulation in human tumors, six colon carcinoma cell lines HCT-8 (ATCC #CCL-244), LoVo (ATCC #CCL-229), COLO205 (ATCC #CLL-222), DLD-1 (ATCC #CCL-221), HCT-116 (ATCC #CCL-247), and HCT-15 (ATCC #CCL-225) were initially expression profiled by microarray to identify genes that are responsive to AKT1/2 small molecule inhibition. The six colon cancer cell lines were treated with either 4 μM AKT1/2 inhibitor L-001154547 ('547; 3-phenyl-2-(4-{[4-(5-pyridin-2-yl-1H-1,2,4-triazol-3-yl)piperidin-1-yl]methyl}phenyl)-1,6-naphthyridin-5(6H)-one; disclosed in WO2006065601) or 4 μM AKT1/2 inhibitor L-01173931 ('931; 6-Methyl-3-phenyl-2-(4-{[4-(5-pyridin-2-yl-1H-1,2,4-triazol-3-yl)piperidin-1-yl]-methyl}phenyl)-1,6-naphthyridin-5(6H)-one; disclosed in WO2006065601) for 6 or 24 hours. Two AKT1/2 inhibitors were used for the profiling experiments as a way to offset any off-target effects of any one compound.
(§3) Discriminant analysis of responders and non-responders using post-dose changes of gene expression was 90% accurate in leave-one-out cross-validation (data not shown). Among these 1,600 genes, we focused on 399 genes that were tightly correlated (r>0.7) with changes in expression of IRS2 across this dataset, a key mediator of growth pathway signaling (FIG. 3B) (Hennessy et al., 2005, Nat. Rev. Drug Discov. 4:988-1004). Note that the sensitivity and resistance phenotypes shown in FIG. 1 are relative, not absolute.

For experiment [2], the system named is DLD-1. Described as above. Type of experiment: cell-based, human. The conditions noted are these: in vitro, grouping is relative.
Description: as §1, §2, §3

Experiment [3] deals with HCT-8. The description is as above. The conditions noted are these: in vitro, grouping is relative. Type of experiment: cell-based, human.
Description: as §1, §2, §3

Experiment [4] relates to COLO205. Described as above. Type of experiment: cell-based, human. The conditions noted are these: in vitro, grouping is relative.
Description: as §1, §2, §3

Experiment [5] has as its system HCT-15. The description is as above. Type of experiment: cell-based, human. Particulars: in vitro, grouping is relative.
Description: as §1, §2, §3

The test system of experiment [6] is HCT-116. Described as above. Type of experiment: cell-based, human. The conditions noted are these: in vitro, grouping is relative.
Description: as §1, §2, §3

Experiment [7] relates to MYC signature. Briefly: Signature inhibition in the connectivity map dataset. Type of experiment: cell-based. Particulars: c-MYC signature; for Rank in terms of significance of signature inhibition: rank among all compounds.
The test system of experiment [8] is growth factor signature. Described as above. The conditions noted are these: for Enrichment / Rank in terms of significance of signature inhibition: Growth Factor Signaling Pathway signature, connectivity map dataset; for Rank in terms of significance of signature inhibition: rank among all compounds; for rank in terms of significance of growth factor signature inhibition: among all compounds in the connectivity map dataset. Type of experiment: cell-based. The text has this:
(§4) To further validate the growth factor signature, we leveraged signatures of drug response from the connectivity map dataset (Lamb et al., 2006, Science 313:1929-1935). This dataset comprises mRNA expression data for 164 distinct small molecules, representing 453 individual compound treatment experiments. These small molecule inhibitors include the PI3K inhibitors wortmannin and LY-294002 and the mTOR inhibitor sirolimus. We surmised that if the growth factor signature truly represents activation of the PI3K pathway, these compounds should have an inhibitory effect on the signature. […] In contrast, other perturbagens in the connectivity map dataset either have no effect, a less significant inhibitory effect, or an activating effect on the growth factor signaling signature. […] For example, while LY-294002 was the top ranked compound in terms of significance of proliferation signature inhibition, sirolimus was ranked fifth, and wortmannin was ranked 23rd (Table 12).

In experiment [9] the test system is proliferation signature. Described as above. Type of experiment: cell-based. The conditions noted are these: for Enrichment / Rank in terms of significance of signature inhibition: Proliferation signature, connectivity map dataset; for Rank in terms of significance of signature inhibition: rank among all compounds.
Description: as §4

For experiment [10], the system named is INSR. Briefly: mRNA expression of growth factor receptors after growth factor treatment (microarray). Type of experiment: cell-based, human. The conditions noted are these: MCF7 and HT29 cells; 100 ng/ml (heregulin 30 ng/ml). As for the experimental part: (§5) FIG. 29. Negative feedback induced by growth factors. The data presented represents the effect of each growth factor on the mRNA expression of (A) EGFR, (B) ERBB3, (C) INSR, or (D) a recently published signature of aberrant PTEN activity. The Y-axes represent the log(10) ratio of expression relative to vehicle. […] The X-axes represent the time point after growth factor addition.
(§6) MCF-7 and HT-29 cell lines were seeded in 6-well plates to achieve 40-50% confluence at the time of growth factor addition. Cells were serum starved for 24 hours in 0.2% charcoal stripped serum, and growth factors were added at 100 ng/ml (EGF, IGF, insulin, b-FGF) or 30 ng/ml (heregulin). Concentrations of growth factors were chosen to give maximal activation of growth factor receptors as judged by receptor auto-phosphorylation. Activation of growth factor receptor pathways after growth factor addition was confirmed by Western analysis of phosphorylated MAPK and phosphorylated AKT in a separate plate of cells (data not shown). Cells were harvested at 30 minutes, 2 hours, 6 hours, 18 hours, and 24 hours after growth factor addition. DMSO (vehicle) treated cells were also harvested at each time point. RNA was prepared using RLT lysis reagent Qiagen spin columns according to manufacturer instructions.
(§7) For growth factor and AKT inhibitor treated cells, total RNA was isolated from cell lines and converted to fluorescently labeled cRNA that was hybridized to DNA oligonucleotide microarrays as described previously (Hughes et al., 2001, Nat. Biotechnol. 19:342-347; Marton et al., 1998, Nat. Med. 4:1293-1301). Briefly, 4 μg of total RNA from each treated sample was used to synthesize dsDNA through reverse transcription. cRNA was produced by in vitro transcription and labeled post-synthetically with Cy3 or Cy5. cRNA derived from growth factor or AKT inhibitor treated cells (experimental sample) was hybridized against cRNA derived from vehicle treated samples (reference sample). Two hybridizations were done with each cRNA sample pair using fluorescent dye reversal strategy. For growth factor treated cells, microarrays contained 23,880 probes representing genes or expressed sequence tags (GEO platform GPL2029). For AKT inhibitor treated cells, microarrays contained 23,658 probes representing genes or expressed sequence tags (GEO platform GPL3991). Probe sequences were chosen to maximize gene specificity and minimize the 3′-replication bias inherent in reverse transcription of mRNA. In addition, all microarrays contained approximately 2,000 control probes for quality control purposes. All probes on the microarrays were synthesized in situ with inkjet technology (Agilent Technologies, Palo Alto, Calif.; Hughes et al, 2001, Nat. Biotechnol. 19:342-347). After hybridization, arrays were scanned and fluorescence intensities for each probe were recorded. Ratios of transcript abundance (experimental to control) were obtained following normalization and correction of the array intensity data. Gene expression data was analyzed using Rosetta Resolver gene expression analysis software (version 7.0, Rosetta Biosoftware, Seattle, Wash.) and MATLAB (The MathWorks, Natick, Mass.).
(§8) As such, care should be taken when using mRNA levels of ERBB3 or INSR as a surrogate for activity of signaling through these receptors.

In experiment [11] the test system is ERBB3. The description is as above. Type of experiment: cell-based, human. Particulars: MCF7 and HT29 cells; 100 ng/ml (heregulin 30 ng/ml). As to the method:
as §5, §6, §7, §8

Experiment [12] relates to growth factor signaling pathway signature. Briefly: Regulation of the growth factor signaling pathway signature by growth factors and inhibitors. Type of experiment: cell-based. The conditions noted are these: HT29 and MCF7 cells; 0.5, 2, 6, 18, or 24 hours. The text has this:
FIG. 9. Inverse regulation of the growth factor signaling pathway signature by growth factors relative to growth factor pathway inhibitors. Genes listed in Table 5 are shown along the Y-axis, and various treatments are listed along the X-axis. The drug treatment/drug targets are listed along the left hand side, and functional groupings are listed along the right hand side. […] From the growth factor compendium, we show data from both colon (HT29) and breast (MCF7) cells treated with heregulin (a growth factor that binds to Erbb family receptors and activates PI3K/AKT signaling). Cells were treated with heregulin for 0.5, 2, 6, 18, or 24 hours.
Because we developed this novel growth factor signaling pathway signature based on regulation by inhibitors of growth factor pathway signaling, we hypothesized that our signature genes would be inversely regulated in vitro by treatments that activate growth factor signaling.

“Also recorded” adds a separate entry of the source.

These results are taken from patent US8392127B2, “Methods and gene expression signature for assessing growth factor signaling pathway regulation status” (Merck Sharp & Dohme Corp., priority 2008, dated 2013).

In the case of `O=c1[nH]ccc2nc(-c3ccc(CN4CCC(c5n[nH]c(-c6ccccn6)n5)CC4)cc3)c(-c3ccccc3)cc12` [L-001154547, 3-phenyl-2-(4-{[4-(5-pyridin-2-yl-1H-1,2,4-triazol-3-yl)piperidin-1-yl]methyl}phenyl)-1,6-naphthyridin-5(6H)-one], the “sensitivity to AKT inhibition” value in experiment [1] is on record as “more sensitive; also recorded: relatively sensitive”; in experiment [2], “more resistance; also recorded: relatively resistant”; in experiment [3] it was “more sensitive; also recorded: relatively sensitive”; in experiment [4], “more sensitive; also recorded: relatively sensitive”; in [5], “more resistance; also recorded: relatively resistant”; in experiment [6], “more resistance; also recorded: relatively resistant”.

With `O=c1cc(N2CCOCC2)oc2c(-c3ccccc3)cccc12` [LY-294002], the Enrichment in experiment [7] is −0.602; in experiment [8] it was −0.748; in experiment [9], −0.527. Further, the “Rank in terms of significance of signature inhibition” value is given as 2 in experiment [7], 3 in [8] and 1 in experiment [9]. Also, the “rank in terms of significance of growth factor signature inhibition” value in experiment [8] came out at 3.

Take `CO[C@H]1C[C@@H]2CC[C@@H](C)[C@@](O)(O2)C(=O)C(=O)N2CCCC[C@H]2C(=O)O[C@H]([C@H](C)C[C@@H]2CC[C@@H](O)[C@H](OC)C2)CC(=O)[C@H](C)/C=C(\C)[C@@H](O)[C@@H](OC)C(=O)[C@H](C)C[C@H](C)/C=C/C=C/C=C/1C` [sirolimus]: the Enrichment in [7] is −0.68; in [8], −0.865; in experiment [9] it was −0.482. Moreover, the “Rank in terms of significance of signature inhibition” value in [7] is 1; in experiment [8] it was 1; in experiment [9], 5. The “rank in terms of significance of growth factor signature inhibition” value in experiment [8] amounted to 1.

On to `COC[C@H]1OC(=O)c2coc3c2[C@@]1(C)C1=C(C3=O)[C@@H]2CCC(=O)[C@@]2(C)C[C@H]1OC(C)=O` [wortmannin], for which, in [7], the Enrichment is recorded as −0.561 and the “Rank in terms of significance of signature inhibition” value is 7. Further, in [8], the Enrichment was −0.776, the “Rank in terms of significance of signature inhibition” value was 2 and the “rank in terms of significance of growth factor signature inhibition” value came out at 2. Also, in experiment [9], the Enrichment is on record as −0.387 and the “Rank in terms of significance of signature inhibition” value is listed as 23. Further, the “rank in terms of significance of proliferation signature inhibition” value in [9] (among all compounds in the connectivity map dataset) was determined as 23.

Turning to “IGF: growth factor added to cells at 100 ng/ml”, the “INSR mRNA expression” value in [10] is recorded as “significant down-regulation”. Besides, the “ERBB3 mRNA expression” value in [11] is recorded as “significant down-regulation”.

As for “b-FGF: growth factor added to cells at 100 ng/ml”, the “INSR mRNA expression” value in [10] was “significant down-regulation”. Further, in [11], the “ERBB3 mRNA expression” value was “significant down-regulation”.

Regarding heregulin, the “regulation of the growth factor signaling pathway signature genes” value in experiment [12] is listed as “inverse regulation of the signature genes”. Also, the “INSR mRNA expression” value in experiment [10] is “significant down-regulation”. The “ERBB3 mRNA expression” value in experiment [11] was “significant down-regulation”.

Regarding “insulin: growth factor added to cells at 100 ng/ml”, the “INSR mRNA expression” value in experiment [10] was “significant down-regulation”. Besides, the “ERBB3 mRNA expression” value in [11] was “significant down-regulation”.
